biological target: T1, hTSHR (Homo sapiens, UniProt P16473); test: hTSHR TR-FRET cAMP Assay (inhibition of M22-stimulated cAMP production); assay type: cell-based; conditions: Expi293F Inducible cells stably expressing hTSHR; cAMP HTRF; stimulated with EC80 of anti-TSHR antibody M22; 15 min compound preincubation, 30 min at 37° C.; read-out: Activity (IC50 bins)
T1 construct: expressed in transfected cells
In short: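 Readout was a cAMP HTRF ratio of 655/620 nm after lysis, scaled between the EC80 M22 signal (0% inhibition) and no-agonist vehicle (100%). Frozen induced Expi293F-hTSHR cells saw test compounds (0.5% DMSO) for 15 min at 37 °C before 30 min of M22 stimulation at EC80.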

T1 sequence (P16473 21-764): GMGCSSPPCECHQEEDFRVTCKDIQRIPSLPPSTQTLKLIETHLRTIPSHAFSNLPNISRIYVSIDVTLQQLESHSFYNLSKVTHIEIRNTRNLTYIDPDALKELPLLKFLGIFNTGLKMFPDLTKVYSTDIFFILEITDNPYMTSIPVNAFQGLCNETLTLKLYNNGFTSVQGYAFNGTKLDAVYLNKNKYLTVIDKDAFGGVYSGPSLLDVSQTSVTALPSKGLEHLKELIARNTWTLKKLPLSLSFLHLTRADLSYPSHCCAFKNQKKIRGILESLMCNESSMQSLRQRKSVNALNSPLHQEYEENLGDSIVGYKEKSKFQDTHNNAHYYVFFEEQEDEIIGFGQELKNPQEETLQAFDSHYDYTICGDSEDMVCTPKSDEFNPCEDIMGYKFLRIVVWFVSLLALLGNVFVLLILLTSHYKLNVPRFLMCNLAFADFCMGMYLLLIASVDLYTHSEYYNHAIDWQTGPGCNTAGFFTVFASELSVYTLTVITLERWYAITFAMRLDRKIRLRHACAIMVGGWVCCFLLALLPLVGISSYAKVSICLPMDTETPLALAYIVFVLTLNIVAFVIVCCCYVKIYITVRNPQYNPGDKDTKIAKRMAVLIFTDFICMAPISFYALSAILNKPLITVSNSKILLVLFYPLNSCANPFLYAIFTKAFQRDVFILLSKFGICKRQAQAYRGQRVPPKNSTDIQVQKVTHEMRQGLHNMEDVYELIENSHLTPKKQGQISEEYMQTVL

| SMILES | IC50 [nM] |
| --- | --- |
| CC(C)(C)NC(=O)Nc1ccc2c(c1)OCC(=O)N2Cc1cccc([C@@H](O)C(F)(F)F)c1 [Example 78, (R)-1-(tert-butyl)-3-(3-oxo-4-(3-(2,2,2-trifluoro-1-hydroxyethyl)ben-zyl)-3,4-dihydro-2H-benzo[b][1,4]oxa-zin-7-yl)urea] | 100 to 1000 |
| CC(C)(C)NC(=O)Nc1ccc2c(c1)OCC(=O)N2Cc1cccc([C@H](O)C(F)(F)F)c1 [Example 79, (S)-1-(tert-butyl)-3-(3-oxo-4-(3-(2,2,2-trifluoro-1-hy-droxyethyl)benzyl)-3,4-dihydro-2H-benzo[b][1,4]oxa-zin-7-yl)urea] | 100 to 1000 |
| CC(C)(C)NC(=O)Nc1ccc2c(c1)OCC(=O)N2Cc1cccc(C(O)CC(F)(F)F)c1 (stereo not drawn) [Example 80, 1-(tert-butyl)-3-(3-oxo-4-(3-(3,3,3-trifluoro-1-hydroxypropyl)ben-zyl)-3,4-dihydro-2H-benzo[b][1,4]oxa-zin-7-yl)urea] | 100 to 1000 |
| C[C@H]1Oc2cc(NC(=O)NC(C)(C)C)ccc2N(Cc2cccc(C(F)(F)F)c2)C1=O [Example 81] | < 100 |
| C[C@@H]1Oc2cc(NC(=O)NC(C)(C)C)ccc2N(Cc2cccc(C(F)(F)F)c2)C1=O [Example 82] | 100 to 1000 |
| C[C@H]1Oc2cc(NC(=O)NC(C)(C)C)ccc2N(Cc2cc(C(F)(F)F)ccc2C#N)C1=O [Example 83, (R)-1-(tert-butyl)-3-(4-(2-cyano-5-(trifluoromethyl)benzyl)-2-methyl-3-oxo-3,4-dihydro-2H-benzo[b][1,4]oxazin-7-yl)urea] | > 1000 |

Results, then the compound that gave them:

| IC50 [nM] | SMILES |
| --- | --- |
| 100 to 1000 | C[C@@H]1Oc2cc(NC(=O)NC(C)(C)C)ccc2N(Cc2cc(C(F)(F)F)ccc2C#N)C1=O [Example 84, (S)-1-(tert-butyl)-3-(4-(2-cyano-5-(trifluoromethyl)benzyl)-2-methyl-3-oxo-3,4-dihydro-2H-benzo[b][1,4]oxazin-7-yl)urea] |
| 100 to 1000 | C[C@H]1Oc2cc(NC(=O)NC(C)(C)C)ccc2N(Cc2cc(Cl)ccc2C#N)C1=O [Example 85, (R)-1-(tert-butyl)-3-(4-(5-chloro-2-cyanobenzyl)-2-methyl-3-oxo-3,4-dihydro-2H-benzo[b][1,4]oxazin-7-yl)urea] |
| > 1000 | C[C@@H]1Oc2cc(NC(=O)NC(C)(C)C)ccc2N(Cc2cc(Cl)ccc2C#N)C1=O [Example 86, (S)-1-(tert-butyl)-3-(4-(5-chloro-2-cyanobenzyl)-2-methyl-3-oxo-3,4-dihydro-2H-benzo[b][1,4]oxazin-7-yl)urea] |
| > 1000 | Cc1ccc(C#N)c(CN2C(=O)[C@@H](C)Oc3cc(NC(=O)NC(C)(C)C)ccc32)c1 [Example 87, (R)-1-(tert-butyl)-3-(4-(2-cyano-5-methylbenzyl)-2-methyl-3-oxo-3,4-dihydro-2H-benzo[b][1,4]oxazin-7-yl)urea] |
| > 1000 | Cc1ccc(C#N)c(CN2C(=O)[C@H](C)Oc3cc(NC(=O)NC(C)(C)C)ccc32)c1 [Example 88, (S)-1-(tert-butyl)-3-(4-(2-cyano-5-methylbenzyl)-2-methyl-3-oxo-3,4-dihydro-2H-benzo[b][1,4]oxazin-7-yl)urea] |
| 100 to 1000 | CC(C)(C)NC(=O)Nc1ccc2c(c1)ncc(=O)n2Cc1cccc(Cl)c1 [Example 89, 1-(tert-butyl)-3-(1-(3-chlorobenzyl)-2-oxo-1,2-dihydroquinoxalin-6-yl)urea] |
| 100 to 1000 | CC(C)(C)NC(=O)Nc1ccc2c(c1)ncc(=O)n2Cc1cccc(C(F)(F)F)c1 [Example 90, 1-(tert-butyl)-3-(2-oxo-1-(3-(trifluoro-methyl)benzyl)-1,2-di-hydro-quinoxalin-6-yl)urea] |
| 100 to 1000 | CC(C)(C)NC(=O)Nc1ccc2c(c1)ncc(=O)n2Cc1cccc(OC(F)(F)F)c1 [Example 91, 1-(tert-butyl)-3-(2-oxo-1-(3-(trifluoro-methoxy)benzyl)-1,2-di-hydro-quinoxalin-6-yl)urea] |
| 100 to 1000 | CC(C)(C)NC(=O)Nc1ccc2c(c1)ncc(=O)n2Cc1cccc(CCC(F)(F)F)c1 [Example 92, 1-(tert-butyl)-3-(2-oxo-1-(3-(3,3,3-trifluoro-propyl)benzyl)-1,2-dihydro-quinoxalin-6-yl)urea] |
